# Measured values: US20070232615A1, “Chemical Compounds” (priority 2004, published 2007)
# Test system: HIV
# Experiment: HOS HIV infectivity assay (Table 2, strain not given)
# Assay type: cell-based
# Details: Human immunodeficiency virus 1, read-out: Activity Level
# Procedure: HOS HIV-1 Infectivity Assay
# Compounds were profiled against two HIV-1 viruses, the M-tropic (CCR5 utilizing) Ba-L strain and the T-tropic (CXCR4 utilizing) IIIB strain. Both viruses were propagated in human peripheral blood lymphocytes. Compounds were tested for there ability to block infection of the HOS cell line (expressing hCXCR4/hCCR5/hCD4/pHIV-LTR-luciferase) by either HIV-1 Ba-L or HIV-1 IIIB. Compound cytotoxicity was also examined in the absence of virus addition.
# HOS HIV-1 Infectivity Assay Format
# HOS cells (expressing hCXCR4/hCCR5/hCD4/pHIV-LTR-luciferase) were harvested and diluted in Dulbeccos modified Eagles media supplemented with 2% FCS and non-essential amino acid to a concentration of 60,000 cells/ml. The cells were plated into 96-well plates (100 ul per well) and the plates were placed in a tissue culture incubator (37° C.; 5% CO2/95% air) for a period of 24 h.
# Subsequently, 50 ul of the desired drug solution (4 times the final concentration) was added to each well and the plates were returned to the tissue culture incubator (37° C.; 5% CO2/95% air) for 1 h. Following this incubation 50 ul of diluted virus was added to each well (approximately 2 million RLU per well of virus). The plates were returned to the tissue culture incubator (37° C.; 5% CO2/95% air) and were incubated for a further 96 h.
# Following this incubation the endpoint for the virally infected cultures was quantified following addition of Steady-Glo Luciferase assay system reagent (Promega, Madison, Wis.). Cell viability or non-infected cultures was measured using a CellTiter-Glo luminescent cell viability assay system (Promega, Madison, Wis.). All luminescent readouts are performed on a Topcount luminescence detector (Packard, Meridien, Conn.).
row,Compound,IC50 [nM]
1,"CN(Cc1cn2c(N)cccc2n1)C1CCCc2cccnc21 (centres unmarked) [Example 43, N-[(5-Aminoimidazo[1,2-a]pyridin-2-yl)methyl]-N-methyl-5,6,7,8-tetrahydro-8-quinolinamine]",100 to 500
2,"COc1ccccc1CN(Cc1cn2c(N3CCN(C)CC3)cccc2n1)[C@H]1CCCc2cccnc21 [Example 72, (8S)—N-{[2-(Methyloxy)phenyl]methyl}-N-{[5-(4-methyl-1-piperazinyl)imidazo[1,2-a]pyridin-2-yl]methyl}-5,6,7,8-tetrahydro-8-quinolinamine]",< 100
3,"CN1CCN(c2cccc3nc(CN(Cc4ccccc4)[C@H]4CCCc5cccnc54)cn23)CC1 [Example 59, (8S)—N-{[5-(4-Methyl-1-piperazinyl)imidazo[1,2-a]pyridin-2-yl]methyl}-N-(phenylmethyl)-5,6,7,8-tetrahydro-8-quinolinamine]",< 100
4,"CC(C)N1CCN(c2cccc3nc(CN(C)[C@H]4CCCc5cccnc54)cn23)CC1 [Example 89, (8S)—N-Methyl-N-({5-[4-(1-methylethyl)-1-piperazinyl]imidazo[1,2-a]pyridin-2-yl}methyl)-5,6,7,8-tetrahydro-8-quinolinamine]",< 100
5,"CN1CCC(N(C)c2cccc3nc(CN(C)[C@H]4CCCc5cccnc54)cn23)CC1 [Example 87, (8S)—N-Methyl-N-({5-[methyl(1-methyl-4-piperidinyl)amino]imidazo[1,2-a]pyridin-2-yl}methyl)-5,6,7,8-tetrahydro-8-quinolinamine]",< 100
6,"CN1CCN(c2cccc3nc(CN(Cc4ccccc4Br)[C@H]4CCCc5cccnc54)cn23)CC1 [Example 63, (8S)—N-[(2-Bromophenyl)methyl]-N-{[5-(4-methyl-1-piperazinyl)imidazo[1,2-a]pyridin-2-yl]methyl}-5,6,7,8-tetrahydro-8-quinolinamine]",100 to 500
7,"CC(C)N(Cc1cn2c(N3CC[C@@H](N(C)C)C3)cccc2n1)[C@H]1CCCc2cccnc21 [Example 98, (8S)—N-({5-[(3R)-3-(Dimethylamino)-1-pyrrolidinyl]imidazo[1,2-a]pyridin-2-yl}methyl)-N-(1-methylethyl)-5,6,7,8-tetrahydro-8-quinolinamine]",< 100
8,"CN1CCC(N(C)c2cccc3nc(CN(C)C4CCCc5cccnc54)cn23)C1 (centres unmarked) [Example 29, N-Methyl-N-({5-[methyl(1-methyl-3-pyrrolidinyl)amino]imidazo[1,2-a]pyridin-2-yl}methyl)-5,6,7,8-tetrahydro-8-quinolinamine]",< 100
9,"CN1CCN(c2cccc3nc(CN(Cc4ccccc4C(F)(F)F)[C@H]4CCCc5cccnc54)cn23)CC1 [Example 69, (8S)—N-{[5-(4-Methyl-1-piperazinyl)imidazo[1,2-a]pyridin-2-yl]methyl}-N-{[2-(trifluoromethyl)phenyl]methyl}-5,6,7,8-tetrahydro-8-quinolinamine]",100 to 500
10,"CN1CCN(c2cccc3nc(CN(Cc4cccc(C(F)(F)F)c4)[C@H]4CCCc5cccnc54)cn23)CC1 [Example 70, (8S)—N-{[5-(4-Methyl-1-piperazinyl)imidazo[1,2-a]pyridin-2-yl]methyl}-N-{[3-(trifluoromethyl)phenyl]methyl}-5,6,7,8-tetrahydro-8-quinolinamine]",< 100
11,"CC(C)c1ccc(CN(Cc2cn3c(N4CCN(C)CC4)cccc3n2)[C@H]2CCCc3cccnc32)cc1 [Example 75, (8S)—N-{[4-(1-Methylethyl)phenyl]methyl}-N-{[5-(4-methyl-1-piperazinyl)imidazo[1,2-a]pyridin-2-yl]methyl}-5,6,7,8-tetrahydro-8-quinolinamine]",< 100
12,"CN1CCN(c2cccc3nc(CN(Cc4ccccc4F)[C@H]4CCCc5cccnc54)cn23)CC1 [Example 60, (8S)—N-[(2-Fluorophenyl)methyl]-N-{[5-(4-methyl-1-piperazinyl)imidazo[1,2-a]pyridin-2-yl]methyl}-5,6,7,8-tetrahydro-8-quinolinamine]",< 100
13,"CN(Cc1cn2c(N3CC[C@H](N(C)C)C3)cccc2n1)C1CCCc2cccnc21 (stereo partly drawn) [Example 24, N-({5-[(3S)-3-(Dimethylamino)-1-pyrrolidinyl]imidazo[1,2-a]pyridin-2-yl}methyl)-N-methyl-5,6,7,8-tetrahydro-8-quinolinamine]",< 100
14,"CN1CCN(c2cccc3nc(CN(Cc4ccc(C(F)(F)F)cc4)[C@H]4CCCc5cccnc54)cn23)CC1 [Example 71, (8S)—N-{[5-(4-Methyl-1-piperazinyl)imidazo[1,2-a]pyridin-2-yl]methyl}-N-{[4-(trifluoromethyl)phenyl]methyl}-5,6,7,8-tetrahydro-8-quinolinamine]",< 100
15,"CN(Cc1cn2c(N3CCCNCC3)cccc2n1)C1CCCc2cccnc21 (centres unmarked) [Example 30, N-{[5-(Hexahydro-1H-1,4-diazepin-1-yl)imidazo[1,2-a]pyridin-2-yl]methyl}-N-methyl-5,6,7,8-tetrahydro-8-quinolinamine]",< 100
16,"CN(C)CCN(C)c1cccc2nc(CN(C)[C@H]3CCCc4cccnc43)cn12 [Example 81, N,N,N′-Trimethyl-N′-[2-({methyl[(8S)-5,6,7,8-tetrahydro-8-quinolinyl]amino}methyl)imidazo[1,2-a]pyridin-5-yl]-1,2-ethanediamine]",< 100
17,"CN(Cc1cn2c(N3CC[C@@H](N)C3)cccc2n1)[C@H]1CCCc2cccnc21 [Example 92, (8S)—N-({5-[(3R)-3-Amino-1-pyrrolidinyl]imidazo[1,2-a]pyridin-2-yl}methyl)-N-methyl-5,6,7,8-tetrahydro-8-quinolinamine]",< 100
18,"COc1ccc([C@H](C)N(Cc2cn3c(N4CCN(C)CC4)cccc3n2)[C@H]2CCCc3cccnc32)cc1 [Example 48, (8S)—N-{(1S)-1-[4-(Methyloxy)phenyl]ethyl}-N-{[5-(4-methyl-1-piperazinyl)imidazo[1,2-a]pyridin-2-yl]methyl}-5,6,7,8-tetrahydro-8-quinolinamine]",100 to 500

# Next, values leading:
row,IC50 [nM],Compound
1,< 100,"CN(Cc1cn2c(N3CCN4CCCC4C3)cccc2n1)[C@H]1CCCc2cccnc21 (stereo partly drawn) [Example 82, (8S)—N-{[5-(Hexahydropyrrolo[1,2-a]pyrazin-2(1H)-yl)imidazo[1,2-a]pyridin-2-yl]methyl}-N-methyl-5,6,7,8-tetrahydro-8-quinolinamine]"
2,< 100,"CN1CCN(c2cccc3nc(CN(C)[C@@H]4CCCc5cccnc54)cn23)CC1 [Example 52, (8R)—N-Methyl-N-{[5-(4-methyl-1-piperazinyl)imidazo[1,2-a]pyridin-2-yl]methyl}-5,6,7,8-tetrahydro-8-quinolinamine]"
3,< 100,"CN1CCN(c2cccc3nc(CN(C4CC4)C4CCCc5cccnc54)cn23)CC1 (centres unmarked) [Example 34, N-Cyclopropyl-N-{[5-(4-methyl-1-piperazinyl)imidazo[1,2-a]pyridin-2-yl]methyl}-5,6,7,8-tetrahydro-8-quinolinamine]"
4,< 100,"CC(C)N(Cc1cn2c(N3CCN(C)CC3)cccc2n1)[C@H]1CCCc2cccnc21 [Example 55, (8S)—N-(1-Methylethyl)-N-{[5-(4-methyl-1-piperazinyl)imidazo[1,2-a]pyridin-2-yl]methyl}-5,6,7,8-tetrahydro-8-quinolinamine]"
5,< 100,"CN1CCN(c2cccc3nc(CN(CCO)[C@H]4CCCc5cccnc54)cn23)CC1 [Example 78, 2-{{[5-(4-Methyl-1-piperazinyl)imidazo[1,2-a]pyridin-2-yl]methyl}[(8S)-5,6,7,8-tetrahydro-8-quinolinyl]amino}ethanol]"
6,< 100,"CN1CCCN(c2cccc3nc(CN(C)C4CCCc5cccnc54)cn23)CC1 (centres unmarked) [Example 31, N-Methyl-N-{[5-(4-methylhexahydro-1H-1,4-diazepin-1-yl)imidazo[1,2-a]pyridin-2-yl]methyl}-5,6,7,8-tetrahydro-8-quinolinamine]"
7,< 100,"CC(C)CN(Cc1cn2c(N3CCN(C)CC3)cccc2n1)[C@H]1CCCc2cccnc21 [Example 53, (8S)—N-{[5-(4-Methyl-1-piperazinyl)imidazo[1,2-a]pyridin-2-yl]methyl}-N-(2-methylpropyl)-5,6,7,8-tetrahydro-8-quinolinamine]"
8,< 100,"CN1CCN(c2cccc3nc(CN(CC4CC4)[C@H]4CCCc5cccnc54)cn23)CC1 [Example 57, (8S)—N-(Cyclopropylmethyl)-N-{[5-(4-methyl-1-piperazinyl)imidazo[1,2-a]pyridin-2-yl]methyl}-5,6,7,8-tetrahydro-8-quinolinamine]"
9,< 100,"CN1CCN(c2cccc3nc(CN(C)[C@H]4CCCc5cccnc54)cn23)CC1 [Example 50, (8S)—N-Methyl-N-{[5-(4-methyl-1-piperazinyl)imidazo[1,2-a]pyridin-2-yl]methyl}-5,6,7,8-tetrahydro-8-quinolinamine]"
10,< 100,"CN1CCN(c2cccc3nc(CNC4CCCc5cccnc54)cn23)CC1 (centres unmarked) [Example 39, N-{[5-(4-Methyl-1-piperazinyl)imidazo[1,2-a]pyridin-2-yl]methyl}-5,6,7,8-tetrahydro-8-quinolinamine]"
11,< 100,"CN(Cc1cn2c(N3CCC(N)CC3)cccc2n1)[C@H]1CCCc2cccnc21 [Example 80, (8S)—N-{[5-(4-Amino-1-piperidinyl)imidazo[1,2-a]pyridin-2-yl]methyl}-N-methyl-5,6,7,8-tetrahydro-8-quinolinamine]"
